From US8883504B2, “Cell differentiation suppressing agent, method of culturing cells using the same, culture solution, and cultured cell line” (Asahi Kasei Kabushiki Kaisha, priority 2003, dated 2014)

Tests used:
mouse ES cell = assay: Subculture of ES cells, alkaline phosphatase quantified by colony assay; type: cell-based
Method: For the ES cells prepared by the method described in (3) preparation of the mouse ES cell of Example 1, 3×10^5 cells were seeded on a 6 cm-diameter cell culture dish coated previously with a 0.1% aqueous gelatin solution to make 4.5 mL of the ES cell assay medium. 0.5 mL of the differentiation inhibiting agent (A to F and a to o) of the present invention, which was dissolved in dimethylsulfoxide (DMSO) or culture medium, or their mixture to make 10 to 40 μg/mL per each dish, or 10^4 units/mL of ESGRO was added. The final concentration of DMSO in the culture medium was 0.1% or lower. As the control, only DMSO was made the final concentration in 0.1% by adding 0.5 mL of a 1% concentration solution diluted with the medium. Culturing was conducted at 37° C. in 5% CO2 incubator for 7 to 30 days. The medium was replaced every day, and the cells were passaged to make 3×10^5 cells/dish for every 2 to 3 days.
The alkaline phosphatase activity of the ES cells cultured for 7 or 30 days by using the differentiation inhibiting agents of the present invention was quantified by applying colony assay. […] The absorbance at 405 nm (O.D.405) and absorbance at 690 nm (O.D.690) of the solution were measured by using the spectrophotometer (Molecular Devices Corp. made, type: SPECTRA MAX190), and the value calculated from O.D.405-O.D.690 was determined as the alkaline phosphatase activity.

[1] = test system: cynomolgus monkey ES cells; assay: ES cell differentiation inhibition assay 6, alkaline phosphatase staining; type: cell-based; details: for proportion of number of alkaline phosphatase stained colony to number of the total colony, in comparison with DMSO (0.1%): Matrigel-coated dish, cultured for 2 days, FIG. 15
Method: As the medium for culturing cynomolgus monkey ES cells, DME/F-12, 1:1 (SIGMA D6421) was added with respective factors in the final concentration as presented below to prepare a cynomolgus monkey ES cell culture medium: 20% knockout serum replacement: KSR (Invitrogen Corp. made, 10828-028), 1× nonessential amino acids (SIGMA M7145), 2 mM L-Glutamine (SIGMA G7513), 1 mM sodium pyruvate (SIGMA S8636), 1× penicillin/streptomycin solution (SIGMA P0781). The culture medium for a mouse feeder cell used for culturing cynomolgus monkey ES cells was prepared by adding respective factors to DMEM (Invitrogen Corp. made, 11960-044) in the final concentration shown below: 10% bovine fetus serum (Invitrogen Corp. made), 2 mM L-glutamine (Sigma G7513), 1× penicillin/streptomycin solution (Sigma P0781).
Gelatin (SIGMA Corp. made, Type A: from porcine ESkin, G2500) was dissolved in distilled water in 0.1% concentration, and 5 mL of the thus prepared 0.1% sterilized aqueous gelatin solution was added in a 6 cm-diameter cell culture dish, and then left stand at 37° C. for 30 minutes or longer. The aqueous gelatin solution was removed, and 2×10^6 mouse embryonic primary culture cell (Invitrogen Corp. made, YE9284400) treated with mitomycin, C (Kyouwa Hakkou Corp. made) was seeded and cultured by using the culture medium for the feeder cell as described above at 37° C. in 5% CO2 incubator (Tabai Espec Corp. made) for 5 hours or longer. The cynomolgus monkey ES cells (Tanabe Seiyaku, K.K. made) was seeded on mouse embryonic primary culture cell, and cultured and proliferated in 5 mL of cynomolgus monkey ES cell culture medium at 37° C. in 5% CO2 incubator for 3 days.
The cynomolgus monkey ES cells cultured by the method described in (1) culture of cynomolgus monkey ES cells as described above were washed with PBS and, then, a 0.1% collagenase solution (Wako Corp. made, 032-10534) dissolved in DMEM (Invitrogen Corp. made 11960-044), or a trypsin solution (prepared by mixing 10 mL of a 2.5% trypsin solution (Invitrogen Corp. made 15090-046), 20 mL of Knockout Serum Replacement (Invitrogen Corp. made 10828-028), 1 mL of a 100 mM CaCl2 aqueous solution and 69 mL of PBS) was added, and incubation was carried out at 37° C. for 5 minutes. 5 mL of the cynomolgus monkey ES cell culture medium was added, cell colonies were removed by using a small sized pipette and, then, dispersed, transferred to a 15 mL sterilized tube, and centrifuged at 1000 rpm for about 5 minutes by using the micro centrifuge (TOMY SEIKO made) to prepare pellets. The supernatant was removed, and then the cells were suspended again in 5 mL of the fresh ES cell culture medium to obtain the cynomolgus monkey ES cells. […]

SMILES	alkaline phosphatase activity of subcultured ES cells in comparison with ES cells cultured by using DMSO (0.1%) (mouse ES cell; subcultured in the medium without serum for 7 days by adding the compound, FIG. 14)	alkaline phosphatase staining of subcultured cells in comparison with DMSO ([1]; 3rd day after subculture after 3-day culture, FIG. 16)	proportion of number of alkaline phosphatase stained colony to number of the total colony, in comparison with DMSO (0.1%) [1]	effect on alkaline phosphatase staining in the presence of 6-bromoindirubin-3-oxime ([1]; subcultured, in the presence of 6-bromoindirubin-3-oxime, FIG. 16)	alkaline phosphatase activity of subcultured ES cells in comparison with ES cells cultured by using DMSO (0.1%) (mouse ES cell; subcultured for 30 days by adding the compound, FIG. 13)
COc1ccc(N=NC(C(N)=O)=C2NC(C)(C)Cc3ccccc32)cc1 [F, 2-(3,3-dimethyl-3,4-dihydro-2H-isoquinoline-1-ylidene)-2-(4-methoxy-phenylazo)-acetamide]	increased significantly	stained significantly	significantly higher proportion of colonies stained with alkaline phosphatase	reinforced	–
CC(=O)c1ccc(/N=N/C(C(N)=O)=C2/NC(C)(C)Cc3ccccc32)cc1 [compound B, 2-(4-acetyl-phenylazo)-2-(3,3-dimethyl-3,4-dihydro-2H-isoquinoline-1-ylidene)-acetamide]	–	–	significantly higher proportion of colonies stained with alkaline phosphatase	–	increased significantly
